Data reported in patent US12428406B2 (PMV Pharmaceuticals, Inc., priority 2019, dated 2025).

These compounds were tested against T1, p53 Y220C (Homo sapiens, UniProt P04637, Y220C) (assay: In vitro DNA binding activity assay (HTRF / TR-FRET): stabilization of p53 Y220C and increase of its DNA binding activity). Conditions: recombinant His-tagged p53 Y220C DNA binding domain (aa 94-312), biotin-labeled consensus DNA, incubated at 27° C. or 29° C. for 60 min.
T1 construct: The recombinant protein was a truncation mutant containing only amino acids 94-312 of p53; made in house; host or cells: E. coli
T1 sequence (P04637 94-312, change not shown): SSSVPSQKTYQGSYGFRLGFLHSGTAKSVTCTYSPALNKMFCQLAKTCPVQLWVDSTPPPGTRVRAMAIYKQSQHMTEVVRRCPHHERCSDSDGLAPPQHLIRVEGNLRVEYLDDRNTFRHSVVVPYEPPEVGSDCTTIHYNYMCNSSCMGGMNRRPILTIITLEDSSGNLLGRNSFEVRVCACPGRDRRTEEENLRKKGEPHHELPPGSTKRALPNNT
Format: biochemical
Outline: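 Compound effect on DNA binding of recombinant His-p53 Y220C (E. coli) to biotin-labeled consensus DNA, expressed as SC150, the concentration giving 50% increase versus untreated. Serial 3-fold DMSO dilutions of 4.5 mM stocks; room-temperature steps of 15 then 20 min.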

| Structure (SMILES) | SC150 (concentration of the compound required to increase the DNA binding activity by 50%) |
| --- | --- |
| CNC(=O)c1ccc(NCC#Cc2cc3c(N[C@H]4CC[C@H](N5CCC6(CC5)COC6)CC4)cccc3n2CC(F)(F)F)c(OC)c1 [Compound 375A, 3-methoxy-N-methyl-4-{[3-(4-{[(1R,4R)-4-{2-oxa-7-azaspiro[3.5]nonan-7-yl}cyclohexyl]amino}-1-(2,2,2-trifluoroethyl)-1H-indol-2-yl)prop-2-yn-1-yl]amino}benzamide] | + (+ = 0 μM ≤ SC150 < 0.05 μM) |
| CCOC(=O)c1ccc(NCC#Cc2cc3c(N[C@@H]4CCN(C(C)C)C[C@@H]4F)cccc3n2CC(F)(F)F)c(OC)c1 [Compound 821A] | + (+ = 0 μM ≤ SC150 < 0.05 μM) |
| CNC(=O)c1ccc(NCC#Cc2cc3c(N[C@H]4CC[C@H](N(C)C)CC4)cccc3n2CC(F)(F)F)c(OCF)c1 [Compound 106A, 3-(fluoromethoxy)-N-methyl-4-{[3-(4-{[(1R,4R)-4-(dimethyl-amino)cyclohexyl]amino}-1-(2,2,2-trifluoro-ethyl)-1H-indol-2-yl)prop-2-yn-1-yl]amino}benzamide] | + (+ = 0 μM ≤ SC150 < 0.05 μM) |
| CNC(=O)c1ccc(NCC#Cc2cc3c(NC4CCN(CC(O)COC)CC4)cccc3n2CC(F)(F)F)c(OCCC#N)c1 (stereo not shown) [Compound 659A, 3-(2-cyanoethoxy)-4-{[3-(4-{[1-(2-hydroxy-3-methoxypropyl)piperidin-4-yl]amino}-1-(2,2,2-trifluoroethyl)-1H-indol-2-yl)prop-2-yn-1-yl]amino}-N-methylbenzamide] | + (+ = 0 μM ≤ SC150 < 0.05 μM) |
| CN(C)[C@H]1CC[C@H](Nc2cccc3c2cc(C#CCNc2ccc(S(C)(=O)=O)cc2OC(F)(F)F)n3CC(F)(F)F)CC1 [Compound 142A] | + (+ = 0 μM ≤ SC150 < 0.05 μM) |
| CS(=O)(=O)c1ccc(NCC#Cc2cc3c(N[C@H]4CC[C@H](N5CC6(CCOCC6)C5)CC4)cccc3n2CC(F)(F)F)c(OCC(=O)O)c1 [Compound 311A, 2-(2-((3-(4-(((1R,4R)-4-(7-oxa-2-azaspiro[3.5]nonan-2-yl)cyclohexyl)amino)-1-(2,2,2-trifluoroethyl)-1H-indol-2-yl)prop-2-yn-1-yl)amino)-5-(methylsulfonyl)phenoxy)acetic acid] | ++ (++ = 0.05 μM ≤ SC150 < 0.1 μM) |
| CCN(CC)[C@H]1CC[C@H](Nc2cccc3c2cc(C#CCNc2ccc(S(=O)(=O)NC)cc2OC)n3CC(F)(F)F)CC1 [Compound 148A, 3-methoxy-N-methyl-4-{[3-(4-{[(1R,4R)-4-(diethylamino)cyclohexyl]amino}-1-(2,2,2-trifluoroethyl)-1H-indol-2-yl)prop-2-yn-1-yl]amino}benzene-1-sulfonamide] | + (+ = 0 μM ≤ SC150 < 0.05 μM) |
| COc1cc(S(=O)(=O)N2CCOCC2)ccc1NCC#Cc1cc2c(NC3CCS(=O)(=O)CC3)cccc2n1CC(F)(F)F [Compound 1036A, 4-{[2-(3-{[2-methoxy-4-(morpholine-4-sulfonyl)phenyl]amino}prop-1-yn-1-yl)-1-(2,2,2-trifluoroethyl)-1H-indol-4-yl]amino}-1λ^6-thiane-1,1-dione] | + (+ = 0 μM ≤ SC150 < 0.05 μM) |
| COc1cc(S(=O)(=O)NC2CCOCC2)ccc1NCC#Cc1cc2c(N[C@H]3CC[C@H](N(C)C)CC3)cccc2n1CC(F)(F)F [Compound 49A, 3-methoxy-N-(oxan-4-yl)-4-{[3-(4-{[(1R,4R)-4-(dimethylamino)cyclohexyl]amino}-1-(2,2,2-trifluoroethyl)-1H-indol-2-yl)prop-2-yn-1-yl]amino}benzene-1-sulfonamide] | + (+ = 0 μM ≤ SC150 < 0.05 μM) |
| COc1cc(C(=O)NCC(C)O)ccc1NCC#Cc1cc2c(N[C@@H]3CCN(C)C[C@@H]3F)cccc2n1CC(F)(F)F (stereo partly drawn) [Compound 1057A, 4-{[3-(4-{[(3S,4R)-3-fluoro-1-methylpiperidin-4-yl]amino}-1-(2,2,2-trifluoroethyl)-1H-indol-2-yl)prop-2-yn-1-yl]amino}-N-(2-hydroxypropyl)-3-methoxybenzamide] | + (+ = 0 μM ≤ SC150 < 0.05 μM) |
| CNC(=O)c1ccc(NCC#Cc2cc3c(NC4CCC(N5CC6(COC6)C5)CC4)cccc3n2CC(F)(F)F)c(OCF)c1 [Compound 253A, 3-(fluoromethoxy)-N-methyl-4-{[3-(4-{[(1R,4R)-4-{2-oxa-6-azaspiro[3.3]heptan-6-yl}cyclohexyl]amino}-1-(2,2,2-trifluoroethyl)-1H-indol-2-yl)prop-2-yn-1-yl]amino} benzamide] | + (+ = 0 μM ≤ SC150 < 0.05 μM) |
| CCNC(=O)c1ccc(NCC#Cc2cc3c(N[C@@H]4CCN(C)C[C@@H]4F)cccc3n2CC(F)(F)F)c(O)c1 [Compound 1060A, N-ethyl-4-{[3-(4-{[(3S,4R)-3-fluoro-1-methylpiperidin-4-yl]amino}-1-(2,2,2-trifluoroethyl)-1H-indol-2-yl)prop-2-yn-1-yl]amino}-3-hydroxybenzamide] | + (+ = 0 μM ≤ SC150 < 0.05 μM) |
| CN1CC[C@@H](Nc2cccc3c2cc(C#CCNC(=O)[C@@H]2C[C@H]2c2ccccc2)n3CC(F)(F)F)[C@@H](F)C1 [Compound 952A, (1R,2R)—N-[3-(4-{[(3S,4R)-3-fluoro-1-methylpiperidin-4-yl]amino}-1-(2,2,2-trifluoroethyl)-1H-indol-2-yl)prop-2-yn-1-yl]-2-phenylcyclopropane-1-carboxamide] | + (+ = 0 μM ≤ SC150 < 0.05 μM) |
| CN1CC[C@@H](Nc2cccc3c2cc(C#CCNC(=O)c2ccn(C(C)(C)C)c2)n3CC(F)(F)F)[C@@H](F)C1 [Compound 955A, 1-tert-butyl-N-[3-(4-{[(3S,4R)-3-fluoro-1-methylpiperidin-4-yl]amino}-1-(2,2,2-trifluoroethyl)-1H-indol-2-yl)prop-2-yn-1-yl]-1H-pyrrole-3-carboxamide] | + (+ = 0 μM ≤ SC150 < 0.05 μM) |

Results, then the compound that gave them:

| SC150 (concentration of the compound required to increase the DNA binding activity by 50%) | Structure (SMILES) |
| --- | --- |
| + (+ = 0 μM ≤ SC150 < 0.05 μM) | COc1cc(S(=O)(=O)N(C)C)ccc1NCC#Cc1cc2c(NC3CCN(C)CC3)cccc2n1CC(F)(F)F [Compound 473A, 3-methoxy-N,N-dimethyl-4-[(3-{4-[(1-methylpiperidin-4-yl)amino]-1-(2,2,2-trifluoroethyl)-1H-indol-2-yl}prop-2-yn-1-yl)amino]benzene-1-sulfonamide] |
| ++ (++ = 0.05 μM ≤ SC150 < 0.1 μM) | CC(=O)Nc1cc(S(C)(=O)=O)ccc1OCC#Cc1cc2c(N[C@H]3CC[C@H](N(C)C)CC3)cccc2n1CC(F)(F)F [Compound 115A, N-(5-methanesulfonyl-2-{[3-(4-{[(1R,4R)-4-(dimethylamino)cyclohexyl]amino}-1-(2,2,2-trifluoro-ethyl)-1H-indol-2-yl)prop-2-yn-1-yl]oxy}phenyl)acetamide] |
| + (+ = 0 μM ≤ SC150 < 0.05 μM) | COc1cc(S(C)(=O)=O)ccc1NCC#Cc1cc2c(NC3CCN(C[C@@H]4COC(C)(C)O4)CC3)cccc2n1CC(F)(F)F [Compound 566A, N-(1-{[(4R)-2,2-dimethyl-1,3-dioxolan-4-yl]methyl}piperidin-4-yl)-2-{3-[(4-methanesulfonyl-2-methoxyphenyl)amino]prop-1-yn-1-yl}-1-(2,2,2-trifluoroethyl)-1H-indol-4-amine] |
| ++++ (++++ = 0.2 μM ≤ SC150 < 1 μM) | COc1cc(S(C)(=O)=O)ccc1NCC#Cc1cc2c(NC(C)=O)cccc2n1CC(F)(F)F [Compound 5A, N-(2-{3-[(4-methanesulfonyl-2-methoxyphenyl)amino]prop-1-yn-1-yl}-1-(2,2,2-trifluoroethyl)-1H-indol-4-yl)acetamide] |
| + (+ = 0 μM ≤ SC150 < 0.05 μM) | COc1cc(S(C)(=O)=O)ccc1NCC#Cc1cc2c(N[C@H]3CC[C@H](N4CCC(OC)C4)CC3)cccc2n1CC(F)(F)F (stereo partly drawn) [Compound 426A, 2-{3-[(4-methane-sulfonyl-2-methoxy-phenyl)amino]prop-1-yn-1-yl}-N-[(1R,4R)-4-(3-methoxypyrrolidin-1-yl)cyclohexyl]-1-(2,2,2-trifluoroethyl)-1H-indol-4-amine] |
| + (+ = 0 μM ≤ SC150 < 0.05 μM) | COCC(O)CN1CCC(Nc2cccc3c2cc(C#CCNc2ccc(S(C)(=O)=O)cc2OC)n3CC(F)(F)F)C1 (stereo not shown) [Compound 455A, 1-{3-[(2-{3-{(4-methanesulfonyl-2-methoxyphenyl)amino]prop-1-yn-1-yl}-1-(2,2,2-trifluoroethyl)-1H-indol-4-yl)amino]pyrrolidin-1-yl}-3-methoxypropan-2-ol] |
| + (+ = 0 μM ≤ SC150 < 0.05 μM) | COCC(O)CN1CCCC(Nc2cccc3c2cc(C#CCNc2ccc(S(C)(=O)=O)cc2OC)n3CC(F)(F)F)C1 (stereo not shown) [Compound 695A, 1-{3-[(2-{3-[(4-methanesulfonyl-2-methoxyphenyl)amino]prop-1-yn-1-yl}-1-(2,2,2-trifluoroethyl)-1H-indol-4-yl)amino]piperidin-1-yl}-3-methoxypropan-2-ol] |
| + (+ = 0 μM ≤ SC150 < 0.05 μM) | COc1cc(S(C)(=O)=O)ccc1NCC#Cc1cc2c(N[C@@H]3CCN(C)C[C@@H]3F)cccc2n1CC(F)(F)F [Compound 772A, N-[(3S,4R)-3-fluoro-1-methylpiperidin-4-yl]-2-{3-[(4-methanesulfonyl-2-methoxyphenyl)amino]prop-1-yn-1-yl}-1-(2,2,2-trifluoroethyl)-1H-indol-4-amine] |
